The chromatographic logD is lipophilicity estimated from chromatographic retention. A higher chromatographic logD goes with higher lipophilicity.

The structures appear in SMILES notation. Read-outs that look alike come from different tables or passages of the source. *1 amine or outer side, *2 acyl side, *3 side chain or, on linkers, in order; H or OH if unused. Where a SMILES comes first, the peptide text is derived from it. Bridges are numbered along the chain shown (N, C = ends). Roman numbers before positions name the chains, in order. [ ]: non-standard residue; d: D form. Hexamethylenediamine = C(CCCN[*:2])CCN[*:1]; dDip = N[C@@H](C(=O)O)C(c1ccccc1)c1ccccc1; Chg = N[C@H](C(=O)O)C1CCCCC1; dNMeA = CN[C@H](C)C(=O)O

Consider five molecules from publication PMC10108347, “Heterobifunctional Ligase Recruiters Enable pan-Degradation of Inhibitor of Apoptosis Proteins” (Journal of Medicinal Chemistry, 2023).

Data set [1] relates to IAPs (cIAP1, cIAP2, XIAP). Put plainly: Immunoblotting of IAPs in MM.1S cells, overall degradation profile, time course and washout. The note with it: 16 h, western blot, concentration (10 nM to 1 μM). Type of data set: cell-based. As for the experimental part:
Next, we examined the persistence of IAP degradation in MM.1S cells after a single exposure to 1 μM of 9 and subsequent removal of the compound. […] The reliance on CRL2^VHL was assessed with a neddylation inhibitor MLN4924, which blocks the activity of CRLs (Figure S13A).

Data set [2] is described as follows: physchem. The following applies: pH 7.4.
Description: The system was calibrated by plotting the retention times of six different drugs (atenolol, metoprolol, labetalol, diltiazem, triphenylene, and permethrin) versus their literature-known log D7.4 in a calibration line (R^2 = 0.99). Subsequently, the mean retention times of the analytes were taken to calculate their log D7.4 values with the aid of the calibration line. At least two independent measurements of each analyte were performed.
Data set [3] addresses T1, XIAP (Homo sapiens, UniProt P98170). Description: Immunoblotting (western blot) quantification of XIAP levels in MM.1S cells. The note with it: 16 h; for remaining activity at 0.1 µM: MM1.S. A general note: A western blot detects proteins with antibodies after separation by electrophoresis.
Description: (§3) To evaluate the capability of our panel of hetero-PROTACs for E3 ligase degradation, VHL19, VHL30, CRBN, cIAP1, cIAP2, and XIAP levels were quantified by western blot analyses. […] SDS-PAGE was performed, and proteins were then transferred onto PVDF membranes. Blotted membranes were blocked with 5% milk in Tris-buffered saline/Tween20 (TBST). Primary antibodies were diluted in 5% BSA in TBST, and incubations were performed overnight at 4 °C. Secondary HRP-conjugated antibodies diluted in 5% milk were incubated for 1 h at room temperature. Detection of proteins on PVDF was carried out using the WesternBright ECL HRP substrate or the WesternBright Sirius HRP substrate (Advansta, San Jose, USA) and imaged with LAS 4000× (Fujifilm). Membranes were subjected to 10 min incubation with Restore Western Blot Stripping Buffer (Thermo Fisher Scientific, Waltham, USA), followed by TBST washes. After brief re-activation with methanol, the membranes were blocked, and further probing of proteins was carried out.
(§4) Quantification of blots was performed using ImageJ software (National Institutes of Health).
Data set [4] deals with T2, cIAP1 (Homo sapiens, UniProt Q13490). Description: Immunoblotting (western blot) quantification of cIAP1 levels in MM.1S cells. The note with it: 16 h; for remaining activity at 0.1 µM: MM1.S.
T2 sequence (Q13490 whole entry): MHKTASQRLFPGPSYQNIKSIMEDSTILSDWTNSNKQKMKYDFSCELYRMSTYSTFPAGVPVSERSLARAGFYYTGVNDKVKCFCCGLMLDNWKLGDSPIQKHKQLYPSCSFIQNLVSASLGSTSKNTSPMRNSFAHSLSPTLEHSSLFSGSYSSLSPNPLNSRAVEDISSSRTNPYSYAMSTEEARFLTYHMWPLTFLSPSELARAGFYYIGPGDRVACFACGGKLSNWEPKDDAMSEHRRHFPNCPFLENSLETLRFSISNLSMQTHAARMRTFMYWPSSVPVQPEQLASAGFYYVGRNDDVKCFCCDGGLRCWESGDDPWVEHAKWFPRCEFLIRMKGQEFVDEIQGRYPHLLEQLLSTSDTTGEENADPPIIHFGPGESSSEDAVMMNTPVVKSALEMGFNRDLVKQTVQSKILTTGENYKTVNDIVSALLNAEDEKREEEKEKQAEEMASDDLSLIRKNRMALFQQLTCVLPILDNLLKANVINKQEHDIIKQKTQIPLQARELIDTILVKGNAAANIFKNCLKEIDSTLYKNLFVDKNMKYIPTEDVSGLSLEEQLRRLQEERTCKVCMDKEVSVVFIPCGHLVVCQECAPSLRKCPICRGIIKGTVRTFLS
Description: as §3, §4
Data set [5] concerns the target cIAP2 (Homo sapiens, UniProt Q13489). Put plainly: Immunoblotting (western blot) quantification of cIAP2 levels in MM.1S cells. The note with it: 16 h; for remaining activity at 0.1 µM: MM1.S.
In data set [6] the target is VHL30 (Homo sapiens, UniProt P40337). Put plainly: Immunoblotting (western blot) quantification of VHL30 levels in MM.1S cells. The note with it: for remaining activity at 0.1 µM: MM1.S, 16 h; for VHL30 degradation (in words): MM.1S cells, western blot.
VHL30, sequence (P40337 whole entry): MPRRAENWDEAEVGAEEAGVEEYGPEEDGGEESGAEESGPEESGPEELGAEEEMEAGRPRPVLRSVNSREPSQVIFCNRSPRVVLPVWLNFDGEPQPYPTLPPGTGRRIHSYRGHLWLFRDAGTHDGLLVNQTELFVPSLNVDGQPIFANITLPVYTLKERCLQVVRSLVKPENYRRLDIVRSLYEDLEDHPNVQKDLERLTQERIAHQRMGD
Description: as §3, §4
Data set [7] concerns the target VHL19 (Homo sapiens, UniProt P40337). Put plainly: Immunoblotting (western blot) quantification of VHL19 levels in MM.1S cells. The following applies: 16 h.
Description: as §3, §4
Data set [8] deals with T2, cIAP1. Description: Immunoblotting of cIAP1 in HG3 wild-type and HG3 VHL-knockout cells. Format: cell-based. On the set-up: endogenous in cells; host or cells: MM.1S. The note with it: 1 μM, 16 h. As for the experimental part:
(§1) Next, cellular activities of hetero-PROTACs 2, 4, and 6 were evaluated in chronic lymphocytic leukemia cells (HG3), for which a VHL-knockout cell line was created (Figure 5). […] Thus, VHL knockout confirmed the involvement of E3 ubiquitin ligase CRL2^VHL in the induced degradation of XIAP (and, at least in part, cIAP1) by these IAP-VHL heterobifunctional PROTACs. This provides additional evidence that the degradation of IAPs relies on the formation of a hetero–ternary complex consisting of both ligases and the degraders.
(§2) For generation of lentiviral vectors, HEK293T cells were transfected with constructs along with the packaging and envelope vectors. Viral supernatants were harvested 48 h after transfection and were used to transduce cell lines. MM.1S and HG3 cells were transduced with virus containing pLKO5d.SSF.SpCas9.P2a.BSD, and cells were selected with blasticidin. Selected cells were then transduced with respective sgRNA constructs targeting VHL, cIAP1, cIAP2, XIAP, and negative control luciferase, which were cloned into pLKO5.hU6.sgRNA.dTom. Transduction success was confirmed through FACS analysis 48 h post-transduction with a minimum efficiency of 95% tomato fluorescence.

Data set [9] deals with T1, XIAP. Description: Immunoblotting of XIAP in HG3 wild-type and HG3 VHL-knockout cells. Type of data set: cell-based. On the set-up: endogenous in cells; host or cells: MM.1S. The following applies: 1 μM, 16 h. The protocol: as §1, §2
The mark [10] stands for this setting: MM.1S cells, western blot, 0.1 or 1 μM.
Setting [11] is: read-out: %remaining protein XIAP, MM.1S cells, 16 h treatment at 0.1 μM, normalized to loading control and DMSO.
The mark [12] stands for this setting: read-out: %remaining protein cIAP1, MM.1S cells, 16 h treatment at 0.1 μM, normalized to loading control and DMSO.
Where [13] appears, read: read-out: %remaining protein cIAP2, MM.1S cells, 16 h treatment at 0.1 μM, normalized to loading control and DMSO.
Setting [14] is: read-out: %remaining protein VHL30, MM.1S cells, 16 h treatment at 0.1 μM, normalized to loading control and DMSO.

cIAP2, sequence (Q13489 whole entry): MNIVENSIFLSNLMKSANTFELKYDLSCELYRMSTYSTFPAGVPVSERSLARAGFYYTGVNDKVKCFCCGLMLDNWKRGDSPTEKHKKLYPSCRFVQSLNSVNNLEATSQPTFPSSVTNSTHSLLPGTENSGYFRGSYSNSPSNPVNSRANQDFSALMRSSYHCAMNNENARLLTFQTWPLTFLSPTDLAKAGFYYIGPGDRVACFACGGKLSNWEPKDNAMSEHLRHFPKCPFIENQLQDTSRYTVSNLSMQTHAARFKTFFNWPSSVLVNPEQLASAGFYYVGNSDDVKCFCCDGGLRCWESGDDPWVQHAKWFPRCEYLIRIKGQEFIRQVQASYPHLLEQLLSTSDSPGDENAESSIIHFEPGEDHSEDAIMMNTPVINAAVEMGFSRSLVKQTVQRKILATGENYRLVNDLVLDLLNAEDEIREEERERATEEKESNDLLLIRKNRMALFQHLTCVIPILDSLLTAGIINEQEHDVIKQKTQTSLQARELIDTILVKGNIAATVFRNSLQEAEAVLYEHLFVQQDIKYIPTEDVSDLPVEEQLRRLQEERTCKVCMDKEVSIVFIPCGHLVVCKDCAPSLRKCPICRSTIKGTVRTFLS
T1 sequence (P98170 whole entry): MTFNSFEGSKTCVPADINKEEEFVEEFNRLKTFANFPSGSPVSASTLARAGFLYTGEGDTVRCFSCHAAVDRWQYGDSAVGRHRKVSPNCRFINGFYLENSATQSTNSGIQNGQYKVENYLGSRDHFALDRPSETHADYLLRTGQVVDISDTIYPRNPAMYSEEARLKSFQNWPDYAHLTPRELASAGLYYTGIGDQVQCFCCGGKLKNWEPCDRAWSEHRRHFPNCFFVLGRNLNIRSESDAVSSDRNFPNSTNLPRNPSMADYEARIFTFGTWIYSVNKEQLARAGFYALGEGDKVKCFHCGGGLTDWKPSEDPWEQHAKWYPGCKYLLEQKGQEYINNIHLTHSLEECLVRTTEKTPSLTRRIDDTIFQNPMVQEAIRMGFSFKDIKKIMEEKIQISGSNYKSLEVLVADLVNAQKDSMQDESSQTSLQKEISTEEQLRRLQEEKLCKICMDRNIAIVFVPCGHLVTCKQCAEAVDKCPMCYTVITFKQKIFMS
VHL19, sequence (P40337 54-213): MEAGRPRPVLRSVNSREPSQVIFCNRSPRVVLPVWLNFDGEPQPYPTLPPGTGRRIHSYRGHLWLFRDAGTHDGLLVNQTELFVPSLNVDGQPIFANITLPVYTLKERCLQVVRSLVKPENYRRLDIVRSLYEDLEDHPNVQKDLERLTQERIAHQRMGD

For `CN[C@H](C)C(=O)N[C@H](C(=O)N1CCC[C@@H]1C(=O)N[C@@H](C(=O)NCCCCCCNC(=O)[C@H](NC(=O)[C@H]1CCCN1C(=O)[C@@H](NC(=O)[C@@H](C)NC)C1CCCCC1)C(c1ccccc1)c1ccccc1)C(c1ccccc1)c1ccccc1)C1CCCCC1` [BV6, reference compound] (I: H-[dNMeA][Chg][dP][dDip] / II: H-[dNMeA][Chg][dP][dDip]; linker I:C-II:C via Hexamethylenediamine), in [1], the “IAP degradation profile (in words)” value is “potent cIAP autodegradation”. The molecule further had a chromatographic logD in data set [2] of 3.4. Besides, the “XIAP degradation (in words)” value in [3] (setting [10]) was “failed to degrade XIAP”. The “cIAP1 degradation (in words)” value in data set [4] (setting [10]) is on record as “substantial degradation”. The “cIAP2 degradation (in words)” value in data set [5] (setting [10]) is given as “substantial degradation”.
With `CN[C@@H](C)C(=O)N[C@H](C(=O)N1C[C@@H](Oc2cccc(OCCCCC(=O)N[C@H](C(=O)N3C[C@H](O)C[C@H]3C(=O)NCc3ccc(-c4scnc4C)cc3)C(C)(C)C)c2)C[C@H]1C(=O)N[C@@H]1CCCc2ccccc21)C1CCCCC1` [PROTAC 1, (2S,4S)-1-((S)-2-Cyclohexyl-2-((S)-2-(methylamino)propanamido)acetyl)-4-(3-((5-(((S)-1-((2S,4R)-4-hydroxy-2-((4-(4-methylthiazol-5-yl)benzyl)carbamoyl)pyrrolidin-1-yl)-3,3-dimethyl-1-oxobutan-2-yl)amino)-5-oxopentyl)oxy)phenoxy)-N-((R)-1,2,3,4-tetrahydronaphthalen-1-yl)pyrrolidine-2-carboxamide], the “IAP degradation profile (in words)” value in data set [1] is “pan-IAP degrader”. Besides, the remaining activity at 0.1 µM is 5% in data set [3] (setting [11]), 7% in [4] (setting [12]), 33% in data set [5] (setting [13]) and 36% in data set [6] (setting [14]). In addition, in [6], the “VHL30 degradation (in words)” value was “strong and dose-dependent VHL30 degradation”. Moreover, in data set [7] (1 μM), the “remaining VHL19” value amounted to 42%.
Regarding `CN[C@@H](C)C(=O)N[C@H](C(=O)N1C[C@@H](Oc2cccc(OCCCCCCCC(=O)N[C@H](C(=O)N3C[C@H](O)C[C@H]3C(=O)NCc3ccc(-c4scnc4C)cc3)C(C)(C)C)c2)C[C@H]1C(=O)N[C@@H]1CCCc2ccccc21)C1CCCCC1` [PROTAC 2, (2S,4S)-1-((S)-2-Cyclohexyl-2-((S)-2-(methylamino)propanamido)acetyl)-4-(3-((8-(((S)-1-((2S,4R)-4-hydroxy-2-((4-(4-methylthiazol-5-yl)benzyl)carbamoyl)pyrrolidin-1-yl)-3,3-dimethyl-1-oxobutan-2-yl)amino)-8-oxooctyl)oxy)phenoxy)-N-((R)-1,2,3,4-tetrahydronaphthalen-1-yl)pyrrolidine-2-carboxamide], the “cIAP1 degradation in VHL+/+ and VHL–/– HG3 cells (in words)” value in data set [8] is given as “cIAP1 autodegradation was observed”. Besides, in [9], the “XIAP degradation in VHL+/+ and VHL–/– HG3 cells (in words)” value is listed as “occurred only in HG3 wild-type cells”. In addition, the remaining activity at 0.1 µM in data set [3] (setting [11]) was 5%; in data set [4] (setting [12]) it was 4%; in data set [5] (setting [13]), 23%; in [6] (setting [14]) it was 28%. In data set [6], the “VHL30 degradation (in words)” value is “strong and dose-dependent VHL30 degradation”. The “VHL19 degradation (in words)” value in [7] (western blot) is reported as “slight hook effect for VHL19 degradation”.
Consider `CN[C@@H](C)C(=O)N[C@H](C(=O)N1C[C@@H](Oc2cccc(OCCOCCOCC(=O)N[C@H](C(=O)N3C[C@H](O)C[C@H]3C(=O)NCc3ccc(-c4scnc4C)cc3)C(C)(C)C)c2)C[C@H]1C(=O)N[C@@H]1CCCc2ccccc21)C1CCCCC1` [PROTAC 4, (2S,4S)-1-((S)-2-Cyclohexyl-2-((S)-2-(methylamino)propanamido)acetyl)-4-(3-(2-(2-(2-(((S)-1-((2S,4R)-4-hydroxy-2-((4-(4-methylthiazol-5-yl)benzyl)carbamoyl)pyrrolidin-1-yl)-3,3-dimethyl-1-oxobutan-2-yl)amino)-2-oxoethoxy)ethoxy)ethoxy)phenoxy)-N-((R)-1,2,3,4-tetrahydronaphthalen-1-yl)pyrrolidine-2-carboxamide], for which, in data set [8], the “cIAP1 degradation in VHL+/+ and VHL–/– HG3 cells (in words)” value is “cIAP1 autodegradation was observed”. For the same molecule, in data set [9], the “XIAP degradation in VHL+/+ and VHL–/– HG3 cells (in words)” value is reported as “occurred only in HG3 wild-type cells”. Moreover, the remaining activity at 0.1 µM in data set [3] (setting [11]) is 7%; in [4] (setting [12]) it was 4%; in data set [5] (setting [13]), 40%; in data set [6] (setting [14]), 44%.
On to `CN[C@@H](C)C(=O)N[C@H](C(=O)N1C[C@@H](Oc2cccc(OCCCCCCOCCCCCCOCC(=O)N[C@H](C(=O)N3C[C@H](O)C[C@H]3C(=O)NCc3ccc(-c4scnc4C)cc3)C(C)(C)C)c2)C[C@H]1C(=O)N[C@@H]1CCCc2ccccc21)C1CCCCC1` [PROTAC 6, (2S,4S)-1-((S)-2-Cyclohexyl-2-((S)-2-(methylamino)propanamido)acetyl)-4-(3-((6-((6-(2-(((S)-1-((2S,4R)-4-hydroxy-2-((4-(4-methylthiazol-5-yl)benzyl)carbamoyl)pyrrolidin-1-yl)-3,3-dimethyl-1-oxobutan-2-yl)amino)-2-oxoethoxy)hexyl)oxy)hexyl)oxy)phenoxy)-N-((R)-1,2,3,4-tetrahydronaphthalen-1-yl)pyrrolidine-2-carboxamide], for which the “cIAP1 degradation in VHL+/+ and VHL–/– HG3 cells (in words)” value in [8] was “cIAP1 autodegradation was observed”. Also, the “XIAP degradation in VHL+/+ and VHL–/– HG3 cells (in words)” value in data set [9] is listed as “occurred only in HG3 wild-type cells”. Also, the remaining activity at 0.1 µM worked out at 2% in data set [3] (read-out: %remaining protein XIAP), 2% in data set [4] (read-out: %remaining protein cIAP1), 29% in [5] (read-out: %remaining protein cIAP2) and 78% in data set [6] (read-out: %remaining protein VHL30).
